Measurements taken from patent US20200323860A1, “METHODS AND MATERIALS FOR TREATING CANCER” (Mayo Foundation for Medical Education and Research, priority 2015, published 2020).

Columns and labels:
[1] = test system: binding of Parkin to Cdc20; assay: Parkin-Cdc20 binding in cells, IP-immunoblot; format: cell-based; settings: cells treated with chemical, with or without nocodazole (FIG. 9J)
[2] = test system: Parkin-deficient lung cancer cell lines; assay: Growth inhibition of Parkin-deficient lung cancer cell lines; format: cell-based, human; settings: BI 2536 100 nM or VX-680 50 nM for 72 hours; BI 2536 dose dependent for 3 days (FIG. 13C-13F)
Protocol: (§1) FIG. 13A-13F. […] (A and B) Parkin WT and KO MEFs under various condition were analyzed for foci formation assay, number of cell growth, SA-β-gal staining for senescence, colony formation assay. Cells were infected or treated with the indicated constructs or chemical and stained (A, left). Cells were infected with the indicated constructs and stained (B, left). Quantification of (left panel) with stained cell intensity results represent the means (±S.E.) of three independent experiments performed in triplicate (right). *, p<0.05, **, p<0.01 and ***, p<0.001 by one-way ANOVA. […] Quantification of cell numbers results represent the means (±S.E.) of three independent experiments performed in triplicate. ***, p<0.001 by one-way ANOVA.
(§2) All cell lines were sourced from commercial venders. […] Three normal lung (2 fibroblasts, IMR-90 and WI-38; 1 epithelial cells; BEAS-2B) cells, six NSCLCs (4 adenocarcinoma, H1437, H522, H1650 and A549; 2 large cell carcinoma, H460 and H1299), and one SCLC (H196) cells were maintained in Eagle's minimal essential media (EMEM, Gibco-Invitrogen, Grand Island, N.Y.). The human lung fibroblast IMR-90 and WI-38 cells were obtained from the American Type Culture Collection (ATCC, Manassas, Va.), and cells ranging from 29 to 34 in population doubling level (PDL) were used. […]

[3] = test system: lung normal fibroblast (WI-38 and IMR 90 cells); assay: Growth inhibition of normal lung fibroblasts; format: cell-based, human; settings: WI-38 and IMR 90 cells (FIG. 13E and 13F)
Protocol: as §1, §2

[4] = test system: Parkin KO MEF tumors in nude mice; assay: Mouse xenograft tumor model with Parkin WT or KO MEFs; format: in vivo; settings: tumors with Parkin-deficiency, i.v., 20 mg/kg twice weekly, four cycles
Protocol: FIGS. 11A-11H. Parkin Is A Key Mitotic Regulator Functioning as a Tumor Suppressor. (A) Cells were transfected with the indicated plasmids, and mitotic cells were analyzed by immunoblot for the indicated proteins. (B) Schematic of the experiments. (C) A549 cells stably transfected with doxycycline-inducible constructs encoding WT Parkin or mutant Parkin (S378A and S378D) were treated with doxycycline and subjected to IP and immunoblot as indicated (Top), in vivo ubiquitination (Bottom). (D) Athymic nude mice were injected subcutaneously with A549 cells stably-transfected with vector or doxycycline-inducible Parkin constructs (WT, S378A and S378D). […] Tumor growth was measured at the indicated times after injection. n=5 for each group. […] Tumor volumes (mm^3) were measured at the indicated times after injection (Bottom). *, p<0.05, **, p<0.01 and ***, p<0.001 by two-way ANOVA. […]
For MEF xenograft experiments, equal numbers (1×10^6 cells) of Parkin WT or KO MEF cells expressing luciferase mixed at a 1:1 dilution with matrigel (Collaborative Research) were implanted in the backs of athymic nude mice. Tumor growth was monitored using calipers and visualized with a bioluminescence-based IVIS system (Caliper LifeScience). […] Tumour growth was measured using a vernier caliper at the indicated times after injection, and the tumor volume was calculated as length×width×height. […]

[5] = test system: Parkin phosphorylation at Ser378; assay: Parkin Ser378 phosphorylation in cells, IP and immunoblot with pS378 antibody; format: cell-based
Protocol: FIGS. 9A-9K. Parkin Is Phosphorylated by Plk1 at Ser378 and Activated during Mitosis. (A) Cells were synchronized at the G1/S transition by double-thymidine block, and cells were released. Cell were harvested at indicated times and analyzed by immunobloting. (B) Cells were incubated in the absence or presence of nocodazole or CCCP and subjected to immunoblot analysis with the indicated antibodies. (C) Comparison of the sequences surrounding 5378 of Parkin orthologues (SEQ ID NOS 42-47, respectively, in order of appearance). […] Immunoprecipitates were incubated with or without λ phosphatase (PPase) and were analyzed by immunobloting with pS378 antibody. (E) Cells were infected with the indicated constructs, synchronized by nocodazole, and released. Parkin phosphorylation at pS378 was then examined by immunoblot analysis. (F) Cells were transfected with indicated plasmids, and Parkin phosphorylation at pS378 was examined. (G) In vitro kinase assay of Parkin by Plk1. Parkin phosphorylation was visualized by pS378 Parkin antibody. (H) Cells were transfected with the indicated plasmids, and then treated with nocodazole. Cell lysates were then blotted with the indicated antibodies. (I) in vitro ubiquitination of Cyclin B1, Securin and Nek2A by WT Parkin and mutants (S65A, S65D, S378A and S378D). […] Samples were analyzed by immunobloting with anti-Cyclin B1, Securin and Nek2A antibody. […]

[6] = test system: Parkin KO MEFs; assay: Transformation and escaped senescence of Parkin KO MEFs (foci formation, cell growth, SA-β-gal staining, colony formation); format: cell-based, mouse; settings: FIG. 13A
Protocol: FIG. 13A-13F. Transformed and escape senescence events in Parkin KO MEFs were reversed by expressing WT Parkin or downregulation of Plk1 but not C431S or S378A, related to FIGS. 6. (A and B) Parkin WT and KO MEFs under various condition were analyzed for foci formation assay, number of cell growth, SA-β-gal staining for senescence, colony formation assay. Cells were infected or treated with the indicated constructs or chemical and stained (A, left). Cells were infected with the indicated constructs and stained (B, left). Quantification of (left panel) with stained cell intensity results represent the means (±S.E.) of three independent experiments performed in triplicate (right). *, p<0.05, **, p<0.01 and ***, p<0.001 by one-way ANOVA. […] Quantification of cell numbers results represent the means (±S.E.) of three independent experiments performed in triplicate. ***, p<0.001 by one-way ANOVA.
For colony formation or foci assay, early-passage MEFs (passage 5) cells were plated at low density into 60-mm cell culture plates. When sufficient colonies were visible, typically after 2-3 weeks, cells were washed twice in PBS before fixing in ice-cold 70% methanol for 30 minutes, stained by 0.2% Crystal violet for 2-3 hours. The following day cells were rinsed in PBS and air-dried. […]

[7] = test system: Parkin WT or KO MEF cells; assay: Sensitivity of Parkin WT or KO MEF cells to BI […], crystal violet staining; format: cell-based, mouse; settings: FIG. 11F
Protocol: (A) Cells were transfected with the indicated plasmids, and mitotic cells were analyzed by immunoblot for the indicated proteins. […] (C) A549 cells stably transfected with doxycycline-inducible constructs encoding WT Parkin or mutant Parkin (S378A and S378D) were treated with doxycycline and subjected to IP and immunoblot as indicated (Top), in vivo ubiquitination (Bottom). (D) Athymic nude mice were injected subcutaneously with A549 cells stably-transfected with vector or doxycycline-inducible Parkin constructs (WT, S378A and S378D). Two days after injection, doxycycline was administered in drinking water. Tumor growth was measured at the indicated times after injection. n=5 for each group. […] Tumor volumes (mm^3) were measured at the indicated times after injection (Bottom). *, p<0.05, **, p<0.01 and ***, p<0.001 by two-way ANOVA. (E) Cells were infected with the indicated constructs and were collected for FACS analysis. […] Results represent the means (±S.E.) of three experiments performed in triplicate. *, p<0.05 and ***, p<0.001 versus Parkin WT MEFs by one-way ANOVA (Right). […] Mean transformed MEFs volumes for Parkin KO are shown. ***, p<0.001 and ****, p<0.0001 versus Parkin WT MEFs by two-way ANOVA.
For colony formation or foci assay, early-passage MEFs (passage 5) cells were plated at low density into 60-mm cell culture plates. […]

CC[C@@H]1C(=O)N(C)c2cnc(Nc3ccc(C(=O)NC4CCN(C)CC4)cc3OC)nc2N1C1CCCC1 [BI 2536, (R)-4-(8-cyclopentyl-7-ethyl-5-methyl-6-oxo-5,6,7,8-tetrahydropteridin-2-ylamino)-3-methoxy-N-(1-methylpiperidin-4-yl)benzamide] was tested, and the “binding of Parkin to Cdc20” value [1] was “decreased binding of Parkin to Cdc20”, the “sensitivity (growth inhibition) of Parkin-deficient lung cancer cell lines” value [2] was “significantly sensitive” and the “sensitivity (growth inhibition) of lung normal fibroblasts” value [3] was “but not lung normal fibroblasts”. The “tumor inhibition in vivo” value [4] was “excellent tumor inhibition”, the “Parkin phosphorylation at Ser378” value ([5]; nocodazole-arrested mitotic cells, with Plk1 inhibitor (FIG. 9D)) was “blocked Parkin phosphorylation at Ser378” and the “escaped senescence and transformation induced by Parkin depletion” value [6] was “transformation was abolished”. The “transformation of Parkin KO MEFs” value [7] was “inhibited transformation of Parkin KO MEFs”.

N#CC(C#N)=NNc1cccc(Cl)c1 [CCCP, carbonyl cyanide m-chlorophenylhydrazone] was tested, and the “Ser 378 phosphorylation of Parkin” value ([5]; cells incubated with CCCP (FIG. 9B)) was “did not affect Ser 378 phosphorylation”.

Cc1cc(Nc2cc(N3CCN(C)CC3)nc(Sc3ccc(NC(=O)C4CC4)cc3)n2)n[nH]1 [VX 680, N-(4-(4-(5-methyl-1H-pyrazol-3-ylamino)-6-(4-methylpiperazin-1-yl)pyrimidin-2-ylthio)phenyl)-cyclopropanecarboxamide] was tested, and the “sensitivity (growth inhibition) of Parkin-deficient lung cancer cell lines” value [2] was “significantly sensitive” and the “sensitivity (growth inhibition) of lung normal fibroblasts” value [3] was “but not lung normal fibroblasts”.
